From article PMC12395308 (ACS Central Science, 2025)
In brackets after ≈: the same amount, converted by molar mass.

How the values were obtained:
[1] = Aqueous solubility in Tris HCl buffer (pH 7.4), shake flask method; details: 37 °C, pH 7.4, aqueous buffer, thermodynamic from solid
[2] = Chemical stability in neat DMSO (UV spectrophotometer); details: post 24 h of incubation
[3] = Derivatization-based quantification of hydrazine in mice plasma using LC-MS; details: for plasma concentration of in vivo released Hz: post 24hrs of 6th dose, repetitive oral dosing for six days; for plasma level of released Hz: single oral dose (10 mg/kg INH or equivalent), all time points 0.083–24 h
[4] = tested on: pyridoxal and pyridoxal-5′-phosphate; assay: Quantification of pyridoxal and pyridoxal-5-phosphate in mice liver; details: repeat-dose study; INH 90 mg/kg, 1d 117.5 mg/kg
[5] = In vivo plasma exposure after repetitive single oral dosing for 10 consecutive days; details: for eAUC20m–6h (AcHz): 10th dose, oral, molar equivalent of 10 mg/kg INH
[6] = Complete pharmacokinetic analysis after a single oral dose; details: for plasma level of AcHz formed in vivo: all time points 0.083–24 h
[7] = Aqueous stability in acidic and basic buffer (HPLC); details: post 24 h of incubation; for chemical stability, pH (7.6): percentage of parent remaining: basic buffer
[8] = Human liver microsomal stability analysis; details: for percentage of 1d/INH remaining after 2 h of incubation, human liver microsomes: 50 μM, 1 mg/mL microsomes, 1 mM NADPH
[9] = Lipophilicity (logD) by shake flask method
[10] = Comparative plasma exposure after a single oral dose at three incremental dose levels; details: for plasma concentration of INH (mean): oral 1mg/Kg; for concentration at 2 h / concentration at 6 h: Balb/C, mouse, plasma, po
[11] = Comparative pharmacokinetic analysis after a single intravenous dose
[12] = Bioconversion of prodrugs in plasma, ex vivo (mice); details: 200 μg/mL
[13] = Mouse liver homogenate conversion assay; format: in vitro ADME
[14] = In vivo plasma exposure after a single oral dose (RACE-PK); details: single oral dose 10 mg/kg
[15] = Bioconversion of prodrugs in plasma, ex vivo (human); details: 200 μg/mL
[16] = Intestinal homogenate conversion assay; format: in vitro ADME, mice; details: 50 μg/mL
[17] = Stomach homogenate conversion assay; format: in vitro ADME, mice; details: 50 μg/mL
[18] = Balb/C, mouse, plasma, po, 10 mg/kg of INH (prodrugs at molar equivalent)
[19] = Balb/C, mouse, plasma, iv, 1 mg/kg

NNC(=O)c1ccncc1 [INH, Isoniazid, reference compound]
solubility at 24 h [1]: 610 mg/mL (≈ 4450 mM)
chemical stability, DMSO: percentage of parent remaining [2]: 100.0%
plasma concentration of in vivo released Hz [3]: BLQ
plasma level of released Hz [3]: BLQ
liver tissue levels of pyridoxal and pyridoxal-5′-phosphate [4]: comparable
eAUC20m–6h (AcHz) [5]: BLQ ^d
feed intake per cage ([5]; day 0, cage of n=3): 9 g
feed intake per cage ([5]; day 1, cage of n=3): 13 g
feed intake per cage ([5]; day 2, cage of n=3): 11 g
feed intake per cage ([5]; day 3, cage of n=3): 9 g
feed intake per cage ([5]; day 4, cage of n=3): 11.5 g
feed intake per cage ([5]; day 5, cage of n=3): 15.5 g
feed intake per cage ([5]; day 6, cage of n=3): 13.5 g
feed intake per cage ([5]; day 7, cage of n=3): 14 g
feed intake per cage ([5]; day 8, cage of n=3): 14 g
feed intake per cage ([5]; day 9, cage of n=3): 15 g
feed intake per cage ([5]; day 10, cage of n=3): 15 g
plasma concentration of released INA (mean) ([6]; single oral dose, 4 h): BLQ
plasma concentration of free INH (mean) ([6]; single oral dose, 6 h): BLQ
plasma concentration of released AcINH (mean) ([6]; single oral dose, 6 h): BLQ
plasma concentration of released INA (mean) ([6]; single oral dose, 6 h): BLQ
plasma concentration of free INH (mean) ([6]; single oral dose, 24 h): BLQ
plasma concentration of released AcINH (mean) ([6]; single oral dose, 24 h): BLQ
plasma concentration of released INA (mean) ([6]; single oral dose, 24 h): BLQ
plasma level of AcHz formed in vivo ([6]; single oral dose): BLQ
chemical stability, pH (3.0): percentage of parent remaining ([7]; acidic buffer): 100.0%
chemical stability, pH (7.6): percentage of parent remaining [7]: 100.0%
percentage of 1d/INH remaining after 2 h of incubation, human liver microsomes [8]: 66%
logD [9]: -0.8
plasma concentration of INH (mean) ([10]; 2 h): BLQ
plasma concentration of INH (mean) ([10]; 6 h): BLQ
plasma concentration of released INA (mean) ([11]; single IV dose, 0.33 h): BLQ
plasma concentration of released INA (mean) ([11]; single IV dose, 1 h): BLQ
plasma concentration of released AcINH (mean) ([11]; single IV dose, 2 h): BLQ
plasma concentration of released INA (mean) ([11]; single IV dose, 2 h): BLQ
plasma concentration of released AcINH (mean) ([11]; single IV dose, 4 h): BLQ
plasma concentration of released INA (mean) ([11]; single IV dose, 4 h): BLQ
plasma concentration of released AcINH (mean) ([11]; single IV dose, 6 h): BLQ
plasma concentration of released INA (mean) ([11]; single IV dose, 6 h): BLQ
plasma concentration of released AcINH (mean) ([11]; single IV dose, 8 h): BLQ
plasma concentration of released INA (mean) ([11]; single IV dose, 8 h): BLQ
plasma concentration of released AcINH (mean) ([11]; single IV dose, 24 h): BLQ
plasma concentration of released INA (mean) ([11]; single IV dose, 24 h): BLQ

CC(C)OC(=O)NNC(=O)c1ccncc1.Cl [prodrug 1d]
solubility at 24 h ([1]; Tris HCl buffer): 18.6 mg/mL
chemical stability, DMSO: percentage of parent remaining [2]: 100.0%
plasma concentration of in vivo released Hz [3]: BLQ
plasma level of released Hz [3]: BLQ
% of prodrug remaining at 20 h, mice plasma ([12]; 37 °C, ex vivo): 23.8%
eAUC20m–20h in mice plasma, prodrug ([12]; 20 h ex vivo incubation): 987 ± 154 ng·h/mL
liver tissue levels of pyridoxal and pyridoxal-5′-phosphate [4]: comparable
eAUC20m–6h (AcHz) [5]: BLQ ^d
feed intake per cage ([5]; day 0, cage of n=3): 11 g
feed intake per cage ([5]; day 1, cage of n=3): 11.5 g
feed intake per cage ([5]; day 2, cage of n=3): 10.5 g
feed intake per cage ([5]; day 3, cage of n=3): 10 g
feed intake per cage ([5]; day 4, cage of n=3): 11 g
feed intake per cage ([5]; day 5, cage of n=3): 14.5 g
feed intake per cage ([5]; day 6, cage of n=3): 12 g
feed intake per cage ([5]; day 7, cage of n=3): 12 g
feed intake per cage ([5]; day 8, cage of n=3): 13.5 g
feed intake per cage ([5]; day 9, cage of n=3): 12.5 g
feed intake per cage ([5]; day 10, cage of n=3): 12.5 g
percentage of 1d remaining after 2 h of incubation, mouse liver homogenate ([13]; 37 °C): 27%
eAUC5–120m of 1d, mouse liver homogenate ([13]; 2 h incubation): 261,525 ng·h/mL
concentration at 0.33 h [6, 18]: 18700 ng/mL
concentration at 1 h [6, 18]: 10400 ng/mL
concentration at 2 h [6, 18]: 4620 ng/mL
concentration at 4 h [6, 18]: 942 ng/mL
concentration at 6 h [6, 18]: 347 ng/mL
concentration at 24 h [6, 18]: 152 ng/mL
plasma concentration of released AcINH (mean) ([6]; single oral dose, 0.33 h): BLQ
plasma concentration of released AcINH (mean) ([6]; single oral dose, 1 h): BLQ
plasma concentration of released AcINH (mean) ([6]; single oral dose, 2 h): BLQ
plasma concentration of released AcINH (mean) ([6]; single oral dose, 4 h): BLQ
plasma concentration of released INA (mean) ([6]; single oral dose, 4 h): BLQ
plasma concentration of free INH (mean) ([6]; single oral dose, 6 h): BLQ
plasma concentration of released AcINH (mean) ([6]; single oral dose, 6 h): BLQ
plasma concentration of released INA (mean) ([6]; single oral dose, 6 h): BLQ
plasma concentration of free INH (mean) ([6]; single oral dose, 24 h): BLQ
plasma concentration of released AcINH (mean) ([6]; single oral dose, 24 h): BLQ
plasma concentration of released INA (mean) ([6]; single oral dose, 24 h): BLQ
AUC5m–24h, released AcINH ([6]; single oral dose, INH 10 mg/kg or molar equivalent): BLQ
Vd, unchanged prodrug ([6]; single oral dose, molar equivalent of 10 mg/kg INH): 1.121 ± 0.345 L/kg
plasma level of AcHz formed in vivo ([6]; single oral dose): BLQ
plasma concentration of AcINH at 20 min [14]: BLQ
plasma eAUC20m–120m (AcINH) ([14]; n=3, 10 mg/kg): BLQ and below the limit of quantification and BLQ ^d
chemical stability, pH (7.6): percentage of parent remaining [7]: 100.0%
percentage of 1d/INH remaining after 2 h of incubation, human liver microsomes [8]: 77%
eAUC0–120m of 1d, human liver microsomes ([8]; 2 h incubation): 80,176 ng·h/mL
% of prodrug remaining at 20 h, human plasma ([15]; 37 °C, ex vivo): 40.1%
eAUC20m–20h in human plasma, prodrug ([15]; 20 h ex vivo incubation): 1196 ± 308 ng·h/mL
logD [9]: 0.2
concentration at 2 h ([10]; 1 mg/kg): 332 ng/mL
concentration at 6 h ([10]; 1 mg/kg): 146 ng/mL
concentration at 2 h ([10]; 3 mg/kg): 578 ng/mL
concentration at 6 h ([10]; 3 mg/kg): 151 ng/mL
concentration at 2 h ([10]; 10 mg/kg): 2030 ng/mL
concentration at 6 h ([10]; 10 mg/kg): 217 ng/mL
eAUC20m–6h (unchanged 1d) ([10]; single oral dose 1 mg/kg): 2916 ± 1005 ng·h/mL
eAUC20m–6h (unchanged 1d) ([10]; single oral dose 3 mg/kg): 5799 ± 858 ng·h/mL
eAUC20m–6h (unchanged 1d) ([10]; single oral dose 10 mg/kg): 20,138 ± 2821 ng·h/mL
eAUC0–20h in intestinal homogenate, prodrug ([16]; 20 h): 728,889 ng·h/mL
percentage of prodrug remaining after 20 h of incubation, intestine homogenate ([16]; ex vivo): 87%
eAUC0–20h in stomach homogenate, prodrug ([17]; 20 h): 433,081 ng·h/mL
percentage of prodrug remaining after 20 h of incubation, stomach homogenate ([17]; ex vivo): 3%
AUC [11, 19]: 18 ± 1 ng·h/mL
Cmax [11, 19]: 90 ± 5 ng/mL
Tmax [11, 19]: 4.8 min
Vd [11, 19]: 21 L/kg
clearance [11, 19]: 1780 mL/min/kg
concentration at 0.33 h [11, 19]: 53.6 ng/mL
plasma concentration of released AcINH (mean) ([11]; single IV dose, 0.33 h): BLQ
plasma concentration of released INA (mean) ([11]; single IV dose, 0.33 h): BLQ
plasma concentration of released AcINH (mean) ([11]; single IV dose, 1 h): BLQ
plasma concentration of released INA (mean) ([11]; single IV dose, 1 h): BLQ
plasma concentration of unchanged 1d (mean) ([11]; single IV dose, 1 h): BLQ
plasma concentration of released AcINH (mean) ([11]; single IV dose, 2 h): BLQ
plasma concentration of released INA (mean) ([11]; single IV dose, 2 h): BLQ
plasma concentration of unchanged 1d (mean) ([11]; single IV dose, 2 h): BLQ
plasma concentration of released AcINH (mean) ([11]; single IV dose, 4 h): BLQ
plasma concentration of released INA (mean) ([11]; single IV dose, 4 h): BLQ
plasma concentration of unchanged 1d (mean) ([11]; single IV dose, 4 h): BLQ
plasma concentration of released AcINH (mean) ([11]; single IV dose, 6 h): BLQ
plasma concentration of released INA (mean) ([11]; single IV dose, 6 h): BLQ
plasma concentration of unchanged 1d (mean) ([11]; single IV dose, 6 h): BLQ
plasma concentration of released AcINH (mean) ([11]; single IV dose, 8 h): BLQ
plasma concentration of released INA (mean) ([11]; single IV dose, 8 h): BLQ
plasma concentration of unchanged 1d (mean) ([11]; single IV dose, 8 h): BLQ
plasma concentration of released AcINH (mean) ([11]; single IV dose, 24 h): BLQ
plasma concentration of released INA (mean) ([11]; single IV dose, 24 h): BLQ
plasma concentration of unchanged 1d (mean) ([11]; single IV dose, 24 h): BLQ
AUC5m–24h, released AcINH ([11]; single IV dose, INH 1 mg/kg or molar equivalent): no AcINH was observed and BLQ
